According to ChEMBL document CHEMBL2407082, “Tetrahydroquinoline-derived macrocyclic toolbox: the discovery of antiangiogenesis agents in zebrafish assay” (ACS Med Chem Lett, 2013):
The source made the active and inactive calls. The calls are words filed in the database; no cut-off is given here.

Organism: Danio rerio
Assay: Inhibition of AB zebrafish early embryo development assessed as delay in epiboly at 2.5 uM after 10 hrs post fertilization by inverted microscopic analysis
Type: functional, organism-based

Question: With `CC[C@H](C)[C@@H]1NC(=O)C[C@H]2[C@@H]3OC(C)(C)O[C@H]3c3cc4c(cc3N2C/C=C\COC1=O)OCO4` as the compound, how does the inhibition read?
Answer: The inhibition was “Active”.

Question: For `C=CCOC(=O)N1c2cc3c(cc2[C@@H]2OC(C)(C)O[C@H]2[C@@H]1CCN(Cc1ccc(F)cc1)C(=O)[C@H](CC(C)C)NC(=O)OCC1c2ccccc2-c2ccccc21)OCO3`, which inhibition is on record?
Answer: Its inhibition is “Active”.

Question: `C=CCOC(=O)N1c2cc3c(cc2[C@@H]2OC(C)(C)O[C@H]2[C@@H]1CCO)OCO3` was tested. Which inhibition did it give?
Answer: Its inhibition is “Active”.

Organism: Danio rerio
Assay: Antiangiogenic activity in transgenic zebrafish embryo expressing EGFP at 2.5 uM after 36 hrs post fertilization by inverted microscopic analysis
Type: functional, organism-based

Question: How did the inhibition turn out when `CC(C)C[C@@H]1NC(=O)C[C@H]2[C@@H]3OC(C)(C)O[C@H]3c3cc4c(cc3N2C/C=C\COC1=O)OCO4` was run?
Answer: The inhibition was “Active”.

Question: How did the inhibition turn out when `C=CCOC[C@H](Cc1ccccc1)NC(=O)C[C@@H]1Nc2cc3c(cc2[C@@H]2OC(C)(C)O[C@@H]12)OCO3` was run?
Answer: Its inhibition is “Active”.

Question: For `C=CCOC(=O)N1c2cc3c(cc2[C@@H]2OC(C)(C)O[C@H]2[C@@H]1CCO)OCO3`, which inhibition is on record?
Answer: The inhibition was “Active”.
